Here are results for two compounds from PMC8634040, “The multi-target aspect of an MmpL3 inhibitor: The BM212 series of compounds bind EthR2, a transcriptional regulator of ethionamide activation” (The Cell Surface, 2021).

One experiment deals with EthR2 (Rv0078) (Mycobacterium tuberculosis, UniProt O53623). The experiment in a line: biochemical. It is filed as binding.
The target of experiment [1] is T1, BCG_0174 (SnoaL-like domain-containing, ortholog to Rv0138) (Mycobacterium tuberculosis, UniProt A0A679LAM0).
T1 construct: gene BQ2027_MB0143
T1 sequence (A0A679LAM0 entry or part of it): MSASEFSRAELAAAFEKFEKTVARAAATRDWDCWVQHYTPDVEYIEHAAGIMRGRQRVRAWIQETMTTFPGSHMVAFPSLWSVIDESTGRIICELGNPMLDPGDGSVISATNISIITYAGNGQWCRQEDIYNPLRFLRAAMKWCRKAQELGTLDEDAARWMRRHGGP
In words: chemoproteomic competition with immobilised GSK569A/GSK574A beads, TMT LC-MS/MS; IC50 […]. Type of experiment: biochemical.

A further experiment addresses T2, BCG_0109 (EthR2) (Mycobacterium tuberculosis, UniProt O53623).
T2 construct: gene Rv0078
The description is as above. It is filed as biochemical.

T2 sequence (O53623 entry or part of it): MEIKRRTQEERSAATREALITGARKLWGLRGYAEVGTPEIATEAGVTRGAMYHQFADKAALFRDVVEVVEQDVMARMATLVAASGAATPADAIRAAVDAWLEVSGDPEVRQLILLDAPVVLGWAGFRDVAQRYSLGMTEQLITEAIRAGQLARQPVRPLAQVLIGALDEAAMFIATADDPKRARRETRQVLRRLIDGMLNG
EthR2 (Rv0078), sequence (O53623 entry or part of it): as above

Usually Kd stands for the equilibrium constant for the complex coming apart. Lower therefore signals higher affinity. For the compound `Cc1c(CN2CCN(C)CC2)cc(-c2ccc(Cl)cc2)n1-c1ccc(Cl)cc1` [BM212, 1-((1,5-bis(4-chlorophenyl)-2-methyl-1H-pyrrol-3-yl)methyl)-4-methylpiperazine], the Kd on EthR2 (Rv0078) was determined as 0.66 µM. On to `Cc1c(CN2CCN(C)CC2)cc(-c2ccc(C(C)C)cc2)n1-c1ccc(F)cc1` [GSK074A, 1-((1-(4-Fluorophenyl)-5-(4-isopropylphenyl)-2-methyl-1H-pyrrol-3-yl)methyl)-4-methylpiperazine], for which the dissociation constant Kd was 7.3 µM in experiment [1] and 2.9 µM on BCG_0109 (EthR2).
